From the supplement of paper PMC10307832

How the values were obtained:
Assay in all cases: relative viability (nuclei count vs DMSO), 5 days (fraction); higher = more cells survive
[1] = compound: COc1cc2nc(N3CCCN(C)CC3)nc(NC3CCN(Cc4ccccc4)CC3)c2cc1OC + CC(C)C[C@H](NC(=O)[C@H](Cc1ccccc1)NC(=O)c1cnccn1)B(O)O [Bortezomib] (partner 0.002 µM)
How it was run: (§1)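 Medians of duplicate plates are given as relative viability. That measure is the nuclei count in treated wells divided by the count in vehicle wells. Counts were taken on 4× images of lung cancer cell lines in 1536-well plates, 5 days after pin-tool dosing the day after seeding with one drug alone or a fixed anchor-drug dose plus five library-drug doses (not always all listed) in √10 steps.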

[2] = compound: COc1cc2nc(N3CCCN(C)CC3)nc(NC3CCN(Cc4ccccc4)CC3)c2cc1OC + CCNC(=O)c1noc(-c2cc(C(C)C)c(O)cc2O)c1-c1ccc(CN2CCOCC2)cc1 [Luminespib] (partner 0.01 µM)
How it was run: as §1

[3] = compound: COc1cc2nc(N3CCCN(C)CC3)nc(NC3CCN(Cc4ccccc4)CC3)c2cc1OC + Nc1nc2[nH]cc(CCc3ccc(C(=O)N[C@@H](CCC(=O)O)C(=O)O)cc3)c2c(=O)[nH]1 [Pemetrexed] (partner 0.2 µM)
How it was run: as §1

[4] = compound: Cc1cc([C@@H](C)Nc2ccccc2C(=O)O)c2nc(N3CCOCC3)cc(=O)n2c1 [AZD6482] + Cc1cc(Nc2cc(N3CCN(C)CC3)nc(Sc3ccc(NC(=O)C4CC4)cc3)n2)n[nH]1 [Tozasertib] (partner 0.1 µM)
How it was run: as §1

For UMC-11, the relative viability ([1]; first compound 0.2 µM) was 0.737, the relative viability ([1]; first compound 0.6325 µM) was 0.778 and the relative viability ([1]; first compound 2 µM) was 0.71. It also gave a relative viability ([1]; first compound 6.325 µM) of 0.594, a relative viability ([2]; first compound 0.2 µM) of 1.06 and a relative viability ([2]; first compound 0.6325 µM) of 1.08. The relative viability ([2]; first compound 2 µM) was 1.05, the relative viability ([2]; first compound 6.325 µM) was 0.816 and the relative viability ([3]; first compound 0.2 µM) was 0.86. It also gave a relative viability ([3]; first compound 0.6325 µM) of 0.773, a relative viability ([3]; first compound 2 µM) of 0.834 and a relative viability ([3]; first compound 6.325 µM) of 0.588. The relative viability ([4]; first compound 0.08 µM) was 0.19, the relative viability ([4]; first compound 0.253 µM) was 0.209 and the relative viability ([4]; first compound 0.8 µM) was 0.186. The relative viability ([4]; first compound 2.53 µM) was 0.23 and the relative viability ([4]; first compound 8 µM) was 0.201.
